Source: US12448388B2, “PRMT5 inhibitors and uses thereof” (Gilead Sciences, Inc., priority 2023, dated 2025)
Like-named read-outs stand apart in the source and are kept apart here.

Legend:
[1] = tested on: HCT116 MTAP-deleted cell lines; test: Cell viability assay (CellTiter-Glo, 7 days), HCT116 MTAP-deleted; assay type: cell-based; conditions: Homo sapiens, HCT-116
Summary of the method: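 HCT116 MTAP-deleted and wild-type cells exposed to serially diluted compound for 7 days at 37 °C, 5% CO2. Viability read by CellTiter-Glo luminescence; CC50 derived per line, with selectivity comparing WT to MTAP-deleted, limited solubility can inflate values marked *.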

[2] = tested on: Symmetric Di-methyl Arginine (SDMA) signal (PRMT5 inhibition) in HCT116 MTAP-deleted cells; test: Symmetric di-methyl arginine image-based high content screen assay (SDMA assay), HCT116 MTAP-deleted; assay type: cell-based; conditions: for EC50: Homo sapiens, HCT-116, HCT116 MTAP-deleted, class symbols
Experimental: Symmetric di-methyl arginine image-based high content screen assay (SDMA assay) was performed in HCT116 WT and HCT116 MTAP-deleted cell lines to measure Symmetric Di-methyl Arginine (SDMA) signal reduction after selective PRMT5 inhibition in the MTAP-deleted cells. Control compounds were analyzed in parallel each time for quality control.
Briefly, the same compound plates were generated as mentioned in the previous section of Cell viability assay on Day −1. On Day 0, 800 HCT WT or HCT116 MTAP-deleted cell were seeded in compound-containing 384 well plates (50 μl per well) in RPMI 1640 media supplemented with 10% heat inactivated fetal bovine serum, Glutamax and penicillin streptomycin using EL460 liquid dispenser 5 μl cassette (BioTek, part no. 7170011). After equilibrating the plate at room temperature, the cells were incubated for 3 days inside the sealed incubator set at 37° C. with 90% humidity and 5% C02.
On Day 3, the cells were fixed by adding 45 μl of 8% neutralized formalin solution to each well using EL460 liquid dispenser 5 μl cassette and the cells were incubated for 30 minutes at room temperature. The formalin solution was washed off with […] phosphate buffered saline (dPBS), the 0.1% Triton X-100 solution in dPBS was used to permeabilize the cells for 15 minutes at room temperature. The triton solution was aspirated, 50 μl of Odyssey Blocking buffer +0.05% Tween20 was added and the plate was incubated at room temperature for 30 minutes.
The blocking solution was removed, a 20 μl of SDMA antibody (Cell Signaling Technology, Cat no. 13222) diluted 1:500 in Odyssey Blocking buffer +0.05% Tween20 was added and the plate was incubated at 4° C. overnight. Next day, the primary SDME antibody solution was washed from each well three times with 0.05% Tween20 in dPBS (PBST).
A 30 μl of the secondary antibody, a Goat anti-Rabbit Alexa Fluor Plus 488 (Invitrogen, Cat no. PIA32731) was diluted 1:500 in Odyssey Blocking buffer +0.05% Tween20 and the plate was incubated for 1.5 hours in dark at room temperature. The secondary antibody solution was removed, 30 μl of 5 mg/ml DAPI solution diluted 1:2000 in dPBS was added and the plate was incubated for 30 minutes in dark at room temperature. The DAPI solution was aspirated and the wells were washed six times with dPBS.
The SDMA signal and DAPI signal per cell were counted using a Cellomics CX7 LZR instrument reading under 488 and 405 nm laser, respectively. The SDMA signal was quantified by mean average intensity per cell from Alexa Fluor Plus 488 after the cell was defined with DAPI. The EC50 values for each compound after 3 days of treatment were calculated using 4 parameter non-linear logistical curve fit.
For the SDMA assay i.e. EC50 shown in Table 3A: A: EC50≤1 nM, B: 1 nM<EC50≤5 nM, C: EC50>5 nM.

[3] = cell viability, HCT116 MTAP-deleted, class symbols, read-out: CC50
[4] = HCT116 WT versus HCT116 MTAP-deleted
[5] = cell viability assay, HCT116 MTAP-deleted, class symbols, read-out: CC50
[6] = HCT116 WT vs HCT116 MTAP-deleted

Compound	CC50 [1, 3]	EC50 selectivity [2, 4]	EC50 [2]	CC50 [1, 5]	EC50 selectivity [2, 6]	CC50 [1]
Cc1ncn2c(N)nc3cc(F)c(C(=O)N(Cc4ccc(C(F)(F)F)cn4)[C@H](C)c4ncccn4)cc3c12 [Ff-54, (R)-5-amino-8-fluoro-1-methyl-N-(1-(pyrimidin-2-yl)ethyl)-N-((5-(trifluoromethyl)pyridin-2-yl)methyl)imidazo[1,5-c]quinazoline-9-carboxamide]	< 100 nM	95	1 to 5 nM			
Nc1nc2cc(F)c(C(=O)N(Cc3ccc(C(F)(F)F)cn3)C34CC(C3)C4)cc2n2cncc12 [Ff-1, 4-amino-N-(bicyclo[1.1.1]pentan-1-yl)-7-fluoro-N-((5-(trifluoromethyl)pyridin-2-yl)methyl)imidazo[1,5-a]quinoxaline-8-carboxamide]	< 100 nM	37	≤ 1 nM			
Nc1nc2cc(F)c(C(=O)N3CC[C@H]4C[C@@H]3c3ccc(C(F)(F)F)c(F)c3O4)cc2n2cncc12 [Ff-634, (4-amino-7-fluoroimidazo[1,5-a]quinoxalin-8-yl)((2S,6R)-10-fluoro-9-(trifluoromethyl)-3,4-dihydro-2H-2,6-methanobenzo[b][1,5]oxazocin-5(6H)-yl)methanone]			≤ 1 nM	< 100 nM	171	
CCN(C(=O)c1ccc2nc(N)c3c(C)ncn3c2c1)[C@@H]1COc2cc(C(F)(F)F)ccc21 [Fg-6, (S)-4-amino-N-ethyl-3-methyl-N-(6-(trifluoromethyl)-2,3-dihydrobenzofuran-3-yl)imidazo[1,5-a]quinoxaline-8-carboxamide]			1 to 5 nM	< 100 nM	88	
Cc1ncc2c3cc(C(=O)N(C)[C@@H]4COc5cc(C(F)(F)F)ccc54)ccc3nc(N)n12 [Fg-10, (S)-5-amino-N,3-dimethyl-N-(6-(trifluoromethyl)-2,3-dihydrobenzofuran-3-yl)imidazo[1,5-c]quinazoline-9-carboxamide]			> 5 nM	> 1000 nM	307	
Nc1nc2cc(F)c(C(=O)N3CCO[C@@H]4Cc5cc(C(F)F)ccc5[C@@H]43)cc2n2cncc12 [Ff-167, (4-amino-7-fluoroimidazo[1,5-a]quinoxalin-8-yl)((4aS,9aR)-7-(difluoromethyl)-2,3,9,9a-tetrahydroindeno[2,1-b][1,4]oxazin-4(4aH)-yl)methanone]	< 100 nM	44	1 to 5 nM			
C#Cc1cc2nc(N)c3cncn3c2cc1C(=O)N(C)[C@@H]1COc2cc(C(F)(F)F)ccc21 [Fg-49, (S)-4-amino-7-ethynyl-N-methyl-N-(6-(trifluoromethyl)-2,3-dihydrobenzofuran-3-yl)imidazo[1,5-a]quinoxaline-8-carboxamide]			≤ 1 nM	< 100 nM	70	
C[C@@H]1CC2Cc3cc(C(F)(F)F)ccc3[C@@H]2N(C(=O)c2cc3c(cc2F)nc(N)c2cncn23)C1 (mixture of isomers) [Ff-320, Rac-(4-amino-7-fluoroimidazo[1,5-a]quinoxalin-8-yl)((3R,4aR,9bR)-3-methyl-7-(trifluoromethyl)-2,3,4,4a,5,9b-hexahydro-1H-indeno[1,2-b]pyridin-1-yl)methanone]	< 100 nM	26	1 to 5 nM			
Nc1nc2ccc(C(=O)N3C[C@H](F)CC4Oc5cc(OC(F)(F)F)ccc5C43)cc2n2cncc12 (mixture of isomers) [Fg-58, rac-(4-aminoimidazo[1,5-a]quinoxalin-8-yl)((3R,4aS,9bS)-3-fluoro-7-(trifluoromethoxy)-3,4,4a,9b-tetrahydrobenzofuro[3,2-b]pyridin-1(2H)-yl)methanone]			1 to 5 nM	< 100 nM	345	
Cc1ncc2c(N)nc3cc(F)c(C(=O)N(C)[C@@H]4COc5cc(C(F)(F)F)ccc54)cc3n12 [Ff-59, (S)-4-amino-7-fluoro-N,1-dimethyl-N-(6-(trifluoromethyl)-2,3-dihydrobenzofuran-3-yl)imidazo[1,5-a]quinoxaline-8-carboxamide]	< 100 nM	65	1 to 5 nM			
CN(C(=O)C1CC1)N(Cc1ccc(C(F)(F)F)cc1F)C(=O)c1cc2c(cc1F)nc(N)c1cncn12 [Fb-3, 4-amino-N′-(cyclopropanecarbonyl)-7-fluoro-N-(2-fluoro-4-(trifluoromethyl)benzyl)-N′-methylimidazo[1,5-a]quinoxaline-8-carbohydrazide]	< 100 nM	32	≤ 1 nM			
C[C@H](c1ncccn1)N(Cc1ccc(C(F)(F)F)cn1)C(=O)c1ccc2nc(N)c3cncn3c2c1 [Fe-2, (R)-4-amino-N-(1-(pyrimidin-2-yl)ethyl)-N-((5-(trifluoromethyl)pyridin-2-yl)methyl)imidazo[1,5-a]quinoxaline-8-carboxamide]	< 100 nM	5	≤ 1 nM			
Cc1ncn2c1c(N)nc1ccc(C(=O)N(C)[C@@H]3COc4nc(C(F)(F)F)ccc43)cc12 [Fg-7, (S)-4-amino-N,3-dimethyl-N-(6-(trifluoromethyl)-2,3-dihydrofuro[2,3-b]pyridin-3-yl)imidazo[1,5-a]quinoxaline-8-carboxamide]			1 to 5 nM	100 to 1000 nM	496	
Nc1nc2cc(F)c(C(=O)N(Cc3ccc(C(F)(F)F)cc3F)C34CC(C3)C4)cc2n2cncc12 [Ff-210, 4-amino-N-(bicyclo[1.1.1]pentan-1-yl)-7-fluoro-N-(2-fluoro-4-(trifluoromethyl)benzyl)imidazo[1,5-a]quinoxaline-8-carboxamide]	< 100 nM	45	≤ 1 nM			
CN(C(=O)c1cc2c(cc1Cl)nc(N)c1cncn12)[C@@H]1COc2cc(C(F)(F)F)ccc21 [Ff-10, (S)-4-amino-7-chloro-N-methyl-N-(6-(trifluoromethyl)-2,3-dihydrobenzofuran-3-yl)imidazo[1,5-a]quinoxaline-8-carboxamide]		88	≤ 1 nM			< 100 nM
Cc1ncn2c1c(N)nc1cnc(C(=O)N(C)[C@@H]3COc4cc(C(F)(F)F)ccc43)cc12 [Ff-502, (S)-4-amino-N,3-dimethyl-N-(6-(trifluoromethyl)-2,3-dihydrobenzofuran-3-yl)imidazo[1,5-a]pyrido[3,4-e]pyrazine-8-carboxamide]			1 to 5 nM	< 100 nM	112	
Cc1ncc2c(N)nc3ccc(C(=O)N(Cc4ccc(C(F)(F)F)cn4)N(C)c4ncccn4)cc3n12 [Fa-2, 4-amino-N′,1-dimethyl-N′-pyrimidin-2-yl-N-[[5-(trifluoromethyl)-2-pyridyl]methyl]imidazo[1,5-a]quinoxaline-8-carbohydrazide]	< 100 nM	17	≤ 1 nM			
CN(C(=O)c1cc2c(cc1F)nc(N)c1cncn12)[C@@H]1COc2cc(-c3cnn(C4CC4)c3)ccc21 [Ff-215, (S)-4-amino-N-(6-(1-cyclopropyl-1H-pyrazol-4-yl)-2,3-dihydrobenzofuran-3-yl)-7-fluoro-N-methylimidazo[1,5-a]quinoxaline-8-carboxamide]	< 100 nM	224	1 to 5 nM			
Nc1nc2ccc(C(=O)N(Cc3cc4ccccn4n3)C34CC(C3)C4)cc2c2cncn12 [Fg-16, 5-amino-N-(bicyclo[1.1.1]pentan-1-yl)-N-(pyrazolo[1,5-a]pyridin-2-ylmethyl)imidazo[1,5-c]quinazoline-9-carboxamide]			> 5 nM	> 1000 nM	6	
CN(Cc1cccc2ccoc12)C(=O)c1ccc2nc(N)c3cncn3c2c1 [Ff-5, 4-amino-N-(benzofuran-7-ylmethyl)-N-methylimidazo[1,5-a]quinoxaline-8-carboxamide]	> 1000 nM	334	> 5 nM			
